Patent US20130096067A1, “DROSOPHILA TUMOR STEM CELL MODEL AND USES THEREOF” (priority 2011, published 2013)
Where a name gives a salt, the structure may show the parent alone. Numbered stars: 1 amine (or outer) side, 2 acyl side, 3 side chain; on linkers, the order of the positions; unused ones are H or OH. Bridge positions count the residues as written; N and C are the ends. Square brackets hold non-standard residues; d marks the D form. Peptide text beside a SMILES is read from it. I, II: the chains in the order shown. Actinocin(9to1) = Cc1c2oc3c(C)ccc(C(=O)[*:1])c3nc-2c(C(=O)[*:2])c(N)c1=O; NMeV = CN[C@H](C(=O)O)C(C)C; Sar = CNCC(=O)O

Legend:
[1] = tested on: Raf-1^gof intestinal tumors; conditions: for Fold: Table 3 summary of hits, Screen ICCB, luciferase relative to DMSO, fed three consecutive days in vials; for Log2 (fold) (luciferase activity, log2 of the fold difference relative to DMSO controls) / Fold (luciferase activity, fold difference relative to DMSO controls): screen of 480 ICCB compounds in vials, compounds fed to flies with one-day old Raf-1^gof tumors, assessed three days later, esg-Gal4 luciferase; for Fold (luciferase activity, fold difference relative to DMSO controls): averaged from multiple wells; as to Fold (luciferase activity, fold difference relative to DMSO controls): test concentration or dose not given here; as to Log2 (fold) (luciferase activity, log2 of the fold difference relative to DMSO controls): test concentration or dose not given here
[2] = tested on: Raf-1^gof intestinal tumors; experiment: Luciferase screen of FDA-approved (NCI) drugs in 96-well plates, flies with Raf-1^gof intestinal tumors; type: in vivo, Drosophila; as to Avg (3 + 6): test concentration or dose not given here; as to Log2 (fold): test concentration or dose not given here
[3] = tested on: JAK-STAT signaling; experiment: upd3-GFP reporter for JAK-STAT signaling in wild-type guts; type: in vivo, Drosophila; conditions: EC cells
Description: (§1) Flies were treated with DMSO alone as a control. […].
(§2) For example, subjecting the fly intestine to the detergent dextran sulfate sodium (DSS) or to pathogen infection, induces ECs to activate the JNK stress-related pathway and to express IL-6 related cytokines (Unpaireds/Upds) (Jiang et al., 2009; Buchon et al., 2009; Apidianakis et al., 2009). The Upds activate JAK-STAT signaling in the ISCs, driving them to overproliferate. To determine if these same pathways are activated in response to FDA anti-cancer drugs, the puc-lacZ reporter was used to monitor JNK signaling, and a Gal-4 enhancer trap to monitor expression of Upd-3, the Upd cytokine preferentially expressed in the gut in response to injury (Jiang et al., 2009).

[4] = tested on: JNK signaling; experiment: puc-LacZ reporter for JNK signaling in wild-type guts; type: in vivo, Drosophila; conditions: EC cells
Description: as §1, §2

[5] = average of Day 3 and Day 6 fold
[6] = log2 of the Day 3 fold difference in luciferase relative to DMSO controls
[7] = luciferase activity relative to DMSO controls, single dose of drug for three days, 96-well plates
[8] = six-day protocol: single dose for three days, then another dose for three more days

Molecule	Avg (3 + 6) [2, 5] [fold]	Log2 (fold) [2, 6]	Day 3 Fold [2, 7] [fold]	Day 6 Fold [2, 8] [fold]	other results
Cc1c2oc3c(C)ccc(C(=O)N[C@@H]4C(=O)N[C@H](C(C)C)C(=O)N5CCC[C@H]5C(=O)N(C)CC(=O)N(C)[C@@H](C(C)C)C(=O)O[C@@H]4C)c3nc-2c(C(=O)N[C@@H]2C(=O)N[C@H](C(C)C)C(=O)N3CCC[C@H]3C(=O)N(C)CC(=O)N(C)[C@@H](C(C)C)C(=O)O[C@@H]2C)c(N)c1=O [Dactinomycin] (I: T[dV]P[Sar][NMeV] / II: T[dV]P[Sar][NMeV]; ester I:1-I:C, II:1-II:C; linker I:N-II:N via Actinocin(9to1))	0.119	−3.068	0.119	–	Fold [1]: 0.438 fold; Log2 (fold) (luciferase activity, log2 of the fold difference relative to DMSO controls) [1]: −1.192; Fold (luciferase activity, fold difference relative to DMSO controls) [1]: 0.438
COc1cc([C@@H]2c3cc4c(cc3[C@@H](O[C@@H]3O[C@@H]5CO[C@@H](C)O[C@H]5[C@H](O)[C@H]3O)[C@H]3COC(=O)[C@H]23)OCO4)cc(OC)c1O [Etoposide]	0.817	−0.134	0.911	0.722	Log2 (fold) (luciferase activity, log2 of the fold difference relative to DMSO controls) [1]: −0.532; Fold (luciferase activity, fold difference relative to DMSO controls) [1]: 0.691
CN(Cc1cnc2nc(N)nc(N)c2n1)c1ccc(C(=O)N[C@@H](CCC(=O)O)C(=O)O)cc1 [Methotrexate]	0.094	−3.231	0.107	0.081	Fold [1]: 0.160 fold; Log2 (fold) (luciferase activity, log2 of the fold difference relative to DMSO controls) [1]: −2.648; Fold (luciferase activity, fold difference relative to DMSO controls) [1]: 0.160; expression of upd3-GFP / Upd-3 reporter (JAK-STAT signaling) [3]: no effect on the expression of any of the reporters; expression of upd3-GFP / Upd-3 reporter (JAK-STAT signaling) ([3]; listed as methotrexate): expressed neither reporter; expression of puc-lacZ reporter (JNK signaling) [4]: no effect on the expression of any of the reporters; expression of puc-lacZ reporter (JNK signaling) ([4]; listed as methotrexate): expressed neither reporter
CO[C@@]12[C@H](COC(N)=O)C3=C(C(=O)C(C)=C(N)C3=O)N1C[C@@H]1N[C@@H]12 [Mitomycin C]	0.204	–	–	–	Fold [1]: 0.470 fold; Log2 (fold) (luciferase activity, log2 of the fold difference relative to DMSO controls) [1]: −1.088; Fold (luciferase activity, fold difference relative to DMSO controls) [1]: 0.470; Day 3 Fold ([2]; po, 72 h): 0.279 fold; Log2 (fold) ([2]; po, 72 h): −1.842
O=C(c1ccc(OCCN2CCCCC2)cc1)c1c(-c2ccc(O)cc2)sc2cc(O)ccc12 [Raloxifene HCl]	1.100	0.337	1.263	0.936	–
CO[C@H]1C[C@@H]2CC[C@@H](C)[C@@](O)(O2)C(=O)C(=O)N2CCCC[C@H]2C(=O)O[C@H]([C@H](C)C[C@@H]2CC[C@@H](O)[C@H](OC)C2)CC(=O)[C@H](C)/C=C(\C)[C@@H](O)[C@@H](OC)C(=O)[C@H](C)C[C@H](C)/C=C/C=C/C=C/1C [Rapamycin]	0.369	−1.216	0.431	0.308	Fold [1]: 0.429 fold; Log2 (fold) (luciferase activity, log2 of the fold difference relative to DMSO controls) [1]: −1.220; Fold (luciferase activity, fold difference relative to DMSO controls) [1]: 0.429
CNC(=O)c1cc(Oc2ccc(NC(=O)Nc3ccc(Cl)c(C(F)(F)F)c3)cc2)ccn1 [Sorafenib]	–	–	–	–	Avg (3 + 6) ([2]; in vivo): 1.046 fold; Day 3 Fold ([2]; in vivo): 0.752 fold; Day 6 Fold ([2]; in vivo): 1.339 fold; Log2 (fold) ([2]; in vivo): −0.410
CN(N=O)C(=O)N[C@@H](C=O)[C@@H](O)[C@H](O)[C@H](O)CO [Streptozocin]	–	–	–	–	Avg (3 + 6) ([2]; in vivo): 0.943 fold; Day 3 Fold ([2]; in vivo): 1.030 fold; Day 6 Fold ([2]; in vivo): 0.856 fold; Log2 (fold) ([2]; in vivo): 0.043
CCN(CC)CCNC(=O)c1c(C)[nH]c(/C=C2\C(=O)Nc3ccc(F)cc32)c1C [Sunitinib]	0.816	−0.243	0.845	0.788	–
CC/C(=C(\c1ccccc1)c1ccc(OCCN(C)C)cc1)c1ccccc1 [Tamoxifen citrate]	0.919	−0.046	0.968	0.869	–
Cn1nnc2c(C(N)=O)ncn2c1=O [Temozolomide]	1.138	−0.032	0.978	1.298	–
COc1cc([C@@H]2c3cc4c(cc3[C@@H](O[C@@H]3O[C@@H]5CO[C@@H](c6cccs6)O[C@H]5[C@H](O)[C@H]3O)[C@H]3COC(=O)[C@H]23)OCO4)cc(OC)c1O [Teniposide]	0.634	−0.679	0.625	0.642	–
O=C1CCC(N2C(=O)c3ccccc3C2=O)C(=O)N1 (stereo not drawn) [Thalidomide]	1.008	0.136	1.099	0.918	Log2 (fold) (luciferase activity, log2 of the fold difference relative to DMSO controls) [1]: −0.252; Fold (luciferase activity, fold difference relative to DMSO controls) [1]: 0.839
Nc1nc2nc[nH]c2c(=S)[nH]1 [Thioguanine]	1.392	0.495	1.409	1.375	–
S=P(N1CC1)(N1CC1)N1CC1 [Thiotepa]	–	–	–	–	Avg (3 + 6) ([2]; in vivo): 0.344 fold; Day 3 Fold ([2]; in vivo): 0.353 fold; Day 6 Fold ([2]; in vivo): 0.335 fold; Log2 (fold) ([2]; in vivo): −1.501
CC[C@@]1(O)C(=O)OCc2c1cc1n(c2=O)Cc2cc3c(CN(C)C)c(O)ccc3nc2-1 [Topotecan HCl]	0.233	−1.600	0.330	0.137	–
CC1=C(/C=C/C(C)=C/C=C/C(C)=C/C(=O)O)C(C)(C)CCC1 [Tretinoin]	0.871	−0.040	0.972	0.769	–
C1CN1c1nc(N2CC2)nc(N2CC2)n1 [Triethylenemelamine (TEM), Triethylenemelamine]	–	–	–	–	Avg (3 + 6) ([2]; in vivo): 0.301 fold; Day 3 Fold ([2]; in vivo): 0.349 fold; Day 6 Fold ([2]; in vivo): 0.253 fold; Log2 (fold) ([2]; in vivo): −1.519
Oc1ncc(N(CCCl)CCCl)c(O)n1 [Uracil mustard]	–	–	–	–	Avg (3 + 6) ([2]; in vivo): 0.869 fold; Day 3 Fold ([2]; in vivo): 0.966 fold; Day 6 Fold ([2]; in vivo): 0.773 fold; Log2 (fold) ([2]; in vivo): −0.050
CCCCC(=O)OCC(=O)[C@]1(O)Cc2c(O)c3c(c(O)c2[C@@H](O[C@H]2C[C@H](NC(=O)C(F)(F)F)[C@H](O)[C@H](C)O2)C1)C(=O)c1c(OC)cccc1C3=O [Valrubicin]	0.778	−0.190	0.876	0.679	–
CC[C@]1(O)C[C@@H]2CN(CCc3c([nH]c4ccccc34)[C@@](C(=O)OC)(c3cc4c(cc3OC)N(C)[C@H]3[C@@](O)(C(=O)OC)[C@H](OC(C)=O)[C@]5(CC)C=CCN6CC[C@]43[C@@H]65)C2)C1 [Vinblastine sulfate]	0.158	−2.445	0.184	0.131	Fold [1]: 0.204 fold; Log2 (fold) (luciferase activity, log2 of the fold difference relative to DMSO controls) [1]: −2.290; Fold (luciferase activity, fold difference relative to DMSO controls) [1]: 0.204
CC[C@]1(O)C[C@H]2CN(CCc3c([nH]c4ccccc34)[C@@](C(=O)OC)(c3cc4c(cc3OC)N(C=O)[C@H]3[C@@](O)(C(=O)OC)[C@H](OC(C)=O)[C@]5(CC)C=CCN6CC[C@]43[C@@H]65)C2)C1 [Vincristine sulfate]	0.314	−2.100	0.233	0.394	–
CCC1=C[C@@H]2CN(C1)Cc1c([nH]c3ccccc13)[C@@](C(=O)OC)(c1cc3c(cc1OC)N(C)[C@H]1[C@@](O)(C(=O)OC)[C@H](OC(C)=O)[C@]4(CC)C=CCN5CC[C@]31[C@@H]54)C2 [Vinorelbine tartrate]	0.761	−0.190	0.877	0.645	–
O=C(CCCCCCC(=O)Nc1ccccc1)NO [Vorinostat]	0.749	−0.703	0.614	0.883	–
O=P(O)(O)C(O)(Cn1ccnc1)P(=O)(O)O [Zolendronic acid]	0.999	−0.115	0.923	1.076	–
Arsenic trioxide	0.981	−0.074	0.950	1.012	–
Estramustine disodium phosphate	–	–	–	–	Avg (3 + 6) ([2]; in vivo): 0.922 fold; Day 3 Fold ([2]; in vivo): 0.971 fold; Day 6 Fold ([2]; in vivo): 0.872 fold; Log2 (fold) ([2]; in vivo): −0.042
